Among the data in patent publication US8404670B2 (Sunovion Pharmaceuticals Inc., priority 2009, dated 2013) are IC50 values, retold here.

T1 sequence (Q9Y5N1 whole entry): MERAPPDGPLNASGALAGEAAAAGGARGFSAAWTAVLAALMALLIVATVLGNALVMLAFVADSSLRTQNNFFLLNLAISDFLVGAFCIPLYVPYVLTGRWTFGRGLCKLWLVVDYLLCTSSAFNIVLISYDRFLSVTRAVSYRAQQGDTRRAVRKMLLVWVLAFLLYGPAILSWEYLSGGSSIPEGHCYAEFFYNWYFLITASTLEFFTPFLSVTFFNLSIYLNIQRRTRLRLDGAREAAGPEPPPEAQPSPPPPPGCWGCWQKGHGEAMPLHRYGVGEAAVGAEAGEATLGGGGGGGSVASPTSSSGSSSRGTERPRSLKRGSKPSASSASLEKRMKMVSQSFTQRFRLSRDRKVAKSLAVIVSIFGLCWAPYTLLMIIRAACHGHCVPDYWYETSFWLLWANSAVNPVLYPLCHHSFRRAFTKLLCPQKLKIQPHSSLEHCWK

The assay addresses T1, human histamine H3 receptor (Homo sapiens, UniProt Q9Y5N1).
T1 construct: host or cells: cells expressing the human H3 receptor
As to the kind of experiment: H3 GTPγS assay (SPA method), histamine H3 in vitro assay. Format: biochemical. Conditions: GTPγ[35S] binding to membranes of cells expressing human H3; antagonist mode with R-γ-Me-Histamine at EC80 (30 nM); in one embodiment HCl salts tested; read-out: Potency (functional potency as indicated by IC50). As to the method: H3 GTPγS assay (SPA method) was performed at EuroScreen (Belgium, ES-392-C) using conventional methods. Briefly, cells expressing the human histamine H3 receptor were homogenized in 15 mM Tris-HCl pH 7.5, 2 mM MgCl2, 0.3 mM EDTA, and 1 mM EGTA. Membranes were washed twice in the above tris buffer, collected by centrifugation (40,000×g, 25 min), and re-suspended in 75 mM Tris-HCl pH 7.5, 12.5 mM MgCl2, 0.3 mM EDTA, 1 mM EGTA, and 250 mM sucrose. Membranes were frozen in liquid nitrogen until use. On the day of the assay, membranes were thawed and diluted in assay buffer (20 mM HEPES pH 7.4, 100 mM NaCl, 10 μg/ml saponin, 1 mM MgCl2) to give 500 μg/ml and mixed (v/v) with GDP in assay buffer for a final GDP concentration of 10 μM and incubated on ice for at least 15 min. PVT-WGA beads (Amersham, RPNQ001) were diluted in assay buffer at 50 mg/mL and mixed with GTPγ[^35S] (Amersham, SJ1308) diluted in assay buffer to give ˜25,000 dpm/10 μL and mixed vol/vol just before the start of the reaction. The reaction was started by adding 50 μL of test compound, 20 μL of the membranes:GDP mix, 10 μL of buffer, and 20 μL of the GTPγ[^35S]:beads mix in a 96 well plate Optiplate™ (PerkinElmer, 6005299) covered with topseal (TopCount™, PerkinElmer), mixed with an orbital shaker for 2 min, incubated for 1 hour at room temperature, centrifuged for 10 min at 2000 rpm, incubated for 1 h at room temperature, and counted for 1 min in a TopCount™ reader (PerkinElmer). Dose response curves and IC50 values (concentration to inhibit the reaction by 50%) were calculated by nonlinear regression using XLfit software (IDBS).
For antagonists testing, 10 μL of a reference agonist (R-γ-Me-Histamine) instead of 10 μL buffer was added at a concentration corresponding to the EC80 (30 nM). Control ligands were R-γ-Me-Histamine (Tocris, 0569), Imetit (Sigma, I-135), Thioperamide (Tocris, 0644), and Clobenpropit (Tocris, 0754) diluted in assay buffer.
The compounds provided herein were tested in the histamine H3 in vitro assay. In one embodiment, the respective HCl salts of the compounds provided herein were prepared using standard chemical procedures and tested in the histamine H3 in vitro assay.
For `c1ccc2c(c1)cnn2-c1ccc2c(c1)nc1n2CCN(C2CCC2)CC1` [Compound 69], the IC50 was not above 100 nM.

Consider `c1cnc2c(c1)ccn2-c1ccc2c(c1)nc1n2CCN(C2CCC2)CC1` [Compound 70, 3-cyclobutyl-9-(1H-pyrrolo[2,3-b]pyridin-1-yl)-2,3,4,5-tetrahydro-1H-[1,4]diazepino[1,7-a]benzimidazole], for which the concentration for half-maximal inhibition (IC50) is not above 100 nM.

For `O=c1cccnn1-c1ccc2c(c1)nc1n2CCN(C2CCC2)CC1` [Compound 71, 2-(3-cyclobutyl-2,3,4,5-tetrahydro-1H-[1,4]diazepino[1,7-a]benzimidazol-9-yl)pyridazin-3(2H)-one], the IC50 was not above 1000 nM.

As to `O=c1[nH]c2ccccc2n1-c1ccc2c(c1)nc1n2CCN(C2CCC2)CC1` [Compound 72, 1-(3-cyclobutyl-2,3,4,5-tetrahydro-1H-[1,4]diazepino[1,7-a]benzimidazol-9-yl)-1H-benzo[d]imidazol-2(3H)-one], the half-inhibitory concentration (IC50) is not above 100 nM.

Consider `CN1CCN(c2ccc3c(c2)nc2n3CCN(C3CCC3)CC2)CC1` [Compound 73, 3-cyclobutyl-9-(4-methylpiperazin-1-yl)-2,3,4,5-tetrahydro-1H-[1,4]diazepino[1,7-a]benzimidazole], for which the IC50 is not above 10 nM.

In the case of `c1cc2c(cc1CN1CCOCC1)nc1n2CCN(C2CCC2)CC1` [Compound 74, 3-cyclobutyl-9-(morpholin-1-ylmethyl)-2,3,4,5-tetrahydro-1H-[1,4]diazepino[1,7-a]benzimidazole], the IC50 is not above 10 nM.

On to `c1cc2c(cc1CN1CCCC1)nc1n2CCN(C2CCC2)CC1` [Compound 75], for which the half-inhibitory concentration (IC50) was not above 10 nM.

As to `CNC(=O)c1ccc(Oc2ccc3nc4n(c3c2)CCN(C2CCC2)CC4)nc1` [Compound 76], the IC50 was not below 1000 nM.

For `COc1ccnc(Oc2ccc3nc4n(c3c2)CCN(C2CCC2)CC4)n1` [Compound 78], the IC50 is not above 1000 nM.

With `COc1ccnc(Nc2ccc3nc4n(c3c2)CCN(C2CCC2)CC4)n1` [Compound 80], the IC50 is not above 1000 nM.

For the molecule `N#Cc1ccc(CNc2ccc3nc4n(c3c2)CCN(C2CCC2)CC4)cc1` [Compound 81], the IC50 is not above 100 nM.

As for `N#Cc1ccc2nc3n(c2c1)CCN(C1CCC1)CC3` [Compound 82], the IC50 was not below 1000 nM.

On to `O=C(c1ccc2nc3n(c2c1)CCN(C1CCC1)CC3)N1CCOCC1` [Compound 84], for which the IC50 was not above 1000 nM.

With `CN(C)C(=O)c1ccc2nc3n(c2c1)CCN(C1CCC1)CC3` [Compound 85], the IC50 is not below 1000 nM.

With `O=C(c1ccc2nc3n(c2c1)CCN(C1CCC1)CC3)N1CCCC1` [Compound 86], the IC50 was not above 1000 nM.

With `CN(C)Cc1ccc2nc3n(c2c1)CCN(C1CCC1)CC3` [Compound 87], the IC50 was not above 10 nM.

For `c1cc2nc3n(c2cc1CN1CCOCC1)CCN(C1CCC1)CC3` [Compound 88, 3-cyclobutyl-8-(morpholin-1-ylmethyl)-2,3,4,5-tetrahydro-1H-[1,4]diazepino[1,7-a]benzimidazole], the IC50 was not above 10 nM.

With `c1cc2nc3n(c2cc1CN1CCCC1)CCN(C1CCC1)CC3` [Compound 89], the 50% inhibitory concentration (IC50) is not above 10 nM.

Turning to `c1coc(-c2ccc3nc4n(c3c2)CCN(C2CCC2)CC4)c1` [Compound 90], the IC50 was not above 1000 nM.

On to `c1cc2c(cc1-c1cnc(N3CCCC3)cn1)nc1n2CCN(C2CCC2)CC1` [Compound 91], for which the IC50 is not above 100 nM.

Consider `CN1CCN(c2cnc(-c3ccc4c(c3)nc3n4CCN(C4CCC4)CC3)cn2)CC1` [Compound 92, 3-cyclobutyl-9-(5-(4-methylpiperazin-1-yl)pyrazin-2-yl)-2,3,4,5-tetrahydro-1H-[1,4]diazepino[1,7-a]benzimidazole], for which the IC50 is not above 10 nM.

Regarding `c1cc2c(cc1-c1cncc(N3CCCC3)n1)nc1n2CCN(C2CCC2)CC1` [Compound 94, 3-cyclobutyl-9-(6-(pyrrolidin-1-yl)pyrazin-2-yl)-2,3,4,5-tetrahydro-1H-[1,4]diazepino[1,7-a]benzimidazole], the IC50 was not above 100 nM.

For the molecule `CN1CCN(c2cncc(-c3ccc4c(c3)nc3n4CCN(C4CCC4)CC3)n2)CC1` [Compound 95, 3-cyclobutyl-9-(6-(4-methylpiperazin-1-yl)pyrazin-2-yl)-2,3,4,5-tetrahydro-1H-[1,4]diazepino[1,7-a]benzimidazole], the IC50 was not above 10 nM.

Consider `c1cc2c(cc1N1CCN(C3CCCC3)CC1)nc1n2CCN(C2CCC2)CC1` [Compound 100, 3-cyclobutyl-9-(4-cyclopentylpiperazin-1-yl)-2,3,4,5-tetrahydro-1H-[1,4]diazepino[1,7-a]benzimidazole], for which the IC50 is not above 10 nM.

For the molecule `c1cc2c(cc1N1CCN(C3CCCCC3)CC1)nc1n2CCN(C2CCC2)CC1` [Compound 102], the IC50 is not above 10 nM.

On to `c1cc2c(cc1N1CCN(C3CCOCC3)CC1)nc1n2CCN(C2CCC2)CC1` [Compound 103, 3-cyclobutyl-9-(4-(tetrahydro-2H-pyran-4-yl)piperazin-1-yl)-2,3,4,5-tetrahydro-1H-[1,4]diazepino[1,7-a]benzimidazole], for which the IC50 was not above 10 nM.

As for `c1cc2c(cc1N1CCN(CC3CC3)CC1)nc1n2CCN(C2CCC2)CC1` [Compound 104, 3-cyclobutyl-9-(4-(cyclopropylmethyl)piperazin-1-yl)-2,3,4,5-tetrahydro-1H-[1,4]diazepino[1,7-a]benzimidazole], the IC50 is not above 10 nM.

Turning to `CN(C)Cc1ccc2c(c1)nc1n2CCN(C2CCC2)CC1` [Compound 105], the IC50 is not above 100 nM.

In the case of `OCc1ccc2c(c1)nc1n2CCN(C2CCC2)CC1` [Compound 106, 2-(3-cyclobutyl-2,3,4,5-tetrahydro-1H-[1,4]diazepino[1,7-a]benzimidazol-9-yl)methanol], the IC50 was not above 1000 nM.

In the case of `COc1ccnc(OCc2ccc3c(c2)nc2n3CCN(C3CCC3)CC2)n1` [Compound 107], the IC50 is not above 100 nM.

Take `N#Cc1ccc(OCc2ccc3c(c2)nc2n3CCN(C3CCC3)CC2)nc1` [Compound 108, 6-((3-cyclobutyl-2,3,4,5-tetrahydro-1H-[1,4]diazepino[1,7-a]benzimidazol-9-yl)methoxy)nicotino-nitrile]: the IC50 is not above 100 nM.

For `c1cnc(OCc2ccc3c(c2)nc2n3CCN(C3CCC3)CC2)cn1` [Compound 109], the IC50 is not above 10 nM.

For the molecule `OCc1ccc2nc3n(c2c1)CCN(C1CCC1)CC3` [Compound 110, 2-(3-cyclobutyl-2,3,4,5-tetrahydro-1H-[1,4]diazepino[1,7-a]benzimidazol-8-yl)methanol], the IC50 is not above 1000 nM.

Turning to `COc1ccnc(OCc2ccc3nc4n(c3c2)CCN(C2CCC2)CC4)n1` [Compound 111], the IC50 was not above 1000 nM.

In the case of `N#Cc1ccc(OCc2ccc3nc4n(c3c2)CCN(C2CCC2)CC4)nc1` [Compound 112, 6-((3-cyclobutyl-2,3,4,5-tetrahydro-1H-[1,4]diazepino[1,7-a]benzimidazol-8-yl)methoxy)nicotino-nitrile], the IC50 is not above 1000 nM.

As for `c1cnc(OCc2ccc3nc4n(c3c2)CCN(C2CCC2)CC4)cn1` [Compound 113, 3-cyclobutyl-9-((pyrazin-2-yloxy)methyl)-2,3,4,5-tetrahydro-1H-[1,4]diazepino[1,7-a]benzimidazole], the IC50 is not above 1000 nM.

`c1ccc(-c2ccc3c(c2)nc2n3CCN(C3CCC3)CC2)nc1` [Compound 114, 3-cyclobutyl-9-(pyridin-2-yl)-2,3,4,5-tetrahydro-1H-[1,4]diazepino[1,7-a]benzimidazole]: the IC50 is not above 100 nM.

Turning to `c1cncc(-c2ccc3c(c2)nc2n3CCN(C3CCC3)CC2)c1` [Compound 115, 3-cyclobutyl-9-(pyridin-3-yl)-2,3,4,5-tetrahydro-1H-[1,4]diazepino[1,7-a]benzimidazole], the IC50 is not above 100 nM.

Take `OC(c1ccc2c(c1)nc1n2CCN(C2CCC2)CC1)c1cnccn1` (centres unmarked) [Compound 120, (3-cyclobutyl-2,3,4,5-tetrahydro-1H-benzo[4,5]imidazo[1,2-d][1,4]diazepin-8-yl)(pyrazin-2-yl)methanol]: the IC50 was not above 100 nM.

Consider `O=C(c1ccc2c(c1)nc1n2CCN(C2CCC2)CC1)c1cnccn1` [Compound 121, (3-cyclobutyl-2,3,4,5-tetrahydro-1H-benzo[4,5]imidazo[1,2-d][1,4]diazepin-8-yl)(pyrazin-2-yl)methanone], for which the 50% inhibitory concentration (IC50) was not above 100 nM.

Take `c1cnc(Cc2ccc3c(c2)nc2n3CCN(C3CCC3)CC2)cn1` [Compound 122, 3-cyclobutyl-8-(pyrazin-2-ylmethyl)-2,3,4,5-tetrahydro-1H-benzo[4,5]imidazo[1,2-d][1,4]diazepine]: the half-maximal inhibitory concentration (IC50) was not above 100 nM.
